# Results as given in ChEMBL document CHEMBL1201862, “PubChem BioAssay data set” (2004).
#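 In this assay, cells in 96-well plates receive the compound at five concentrations for 48 hours. Endpoints are linearly interpolated between the surrounding concentrations. The concentration for 50% growth inhibition is given as GI50.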 Calls of active or inactive are those of the source. Cut-off read from the data, not from the text of the source: active = GI50 up to about 1.1 µM and inactive = higher.
# Key:
# Assay in all cases: NCI-60 cell line screen, 48 h
# [1] = tested on: NCI-H23
# [2] = tested on: OVCAR-8
# [3] = tested on: M14
# [4] = tested on: IGROV-1
# [5] = tested on: A498
# [6] = tested on: TK-10
# [7] = tested on: K562
# [8] = tested on: SF-539
# [9] = tested on: SW-620
# [10] = tested on: 786-0
# [11] = tested on: SF-268
# [12] = tested on: HL-60
# [13] = tested on: LOX IMVI
# [14] = tested on: RPMI-8226
# [15] = tested on: U-251
# [16] = tested on: SF-295
Compound,GI50 [1],GI50 [2],GI50 [3],GI50 [4],GI50 [5],GI50 [6],GI50 [7],GI50 [8],GI50 [9],GI50 [10],GI50 [11],GI50 [12],GI50 [13],GI50 [14],GI50 [15],GI50 [16]
S=C(Nc1ccccc1)N1N=C2c3ccccc3CC[C@H]2[C@@H]1c1ccccc1,5.27 µM (inactive),10.3 µM (inactive),4.89 µM (inactive),4.54 µM (inactive),11.7 µM (inactive),> 100 µM (inactive),0.607 µM (active),5.87 µM (inactive),2.4 µM (inactive),4.31 µM (inactive),12.9 µM (inactive),0.855 µM (active),7.35 µM (inactive),4.34 µM (inactive),7.59 µM (inactive),–
CCCCOC(=O)CNC(=O)OCCCCC#CC#CCCCCOC(=O)NCC(=O)OCCCC,> 100 µM (inactive),> 100 µM (inactive),> 100 µM (inactive),> 100 µM (inactive),> 100 µM (inactive),> 100 µM (inactive),> 100 µM (inactive),> 100 µM (inactive),> 100 µM (inactive),> 100 µM (inactive),> 100 µM (inactive),> 100 µM (inactive),> 100 µM (inactive),> 100 µM (inactive),> 100 µM (inactive),> 100 µM (inactive)
C/C=C/C1(C)/C(=N\O)C(C)(CCC)C(=O)N1O (stereo unspecified),> 100 µM (inactive),> 100 µM (inactive),> 100 µM (inactive),> 100 µM (inactive),> 100 µM (inactive),> 100 µM (inactive),> 100 µM (inactive),> 100 µM (inactive),> 100 µM (inactive),> 100 µM (inactive),–,> 100 µM (inactive),> 100 µM (inactive),> 100 µM (inactive),> 100 µM (inactive),> 100 µM (inactive)
N#C/C(=C\c1ccccc1)C(NO)Nc1ccccc1 (stereo unspecified),> 100 µM (inactive),66.1 µM (inactive),> 100 µM (inactive),57.3 µM (inactive),80.2 µM (inactive),> 100 µM (inactive),44.7 µM (inactive),70.3 µM (inactive),74.8 µM (inactive),> 100 µM (inactive),65.3 µM (inactive),> 100 µM (inactive),–,58.1 µM (inactive),30.3 µM (inactive),> 100 µM (inactive)
O=C(Nc1nccs1)c1cc(C2=CC=CC([N+](=O)[O-])C=C2)nc(S)n1 (stereo unspecified),> 100 µM (inactive),> 100 µM (inactive),> 100 µM (inactive),> 100 µM (inactive),> 100 µM (inactive),> 100 µM (inactive),> 100 µM (inactive),> 100 µM (inactive),> 100 µM (inactive),> 100 µM (inactive),> 100 µM (inactive),> 100 µM (inactive),> 100 µM (inactive),> 100 µM (inactive),> 100 µM (inactive),> 100 µM (inactive)
CCOP(=O)(OCC)OC1C=CC2CCC1C2 (stereo unspecified),> 100 µM (inactive),> 100 µM (inactive),> 100 µM (inactive),> 100 µM (inactive),> 100 µM (inactive),> 100 µM (inactive),> 100 µM (inactive),> 100 µM (inactive),–,86.3 µM (inactive),> 100 µM (inactive),> 100 µM (inactive),> 100 µM (inactive),28.1 µM (inactive),> 100 µM (inactive),> 100 µM (inactive)
NC(=O)N/N=C1/CCCC/C1=C\c1ccccc1,> 100 µM (inactive),> 100 µM (inactive),> 100 µM (inactive),> 100 µM (inactive),> 100 µM (inactive),> 100 µM (inactive),> 100 µM (inactive),> 100 µM (inactive),> 100 µM (inactive),> 100 µM (inactive),> 100 µM (inactive),> 100 µM (inactive),> 100 µM (inactive),> 100 µM (inactive),> 100 µM (inactive),> 100 µM (inactive)
O=C(Nc1ccc(Cl)c(Cl)c1)C(=O)C(C(=O)c1ccccc1-c1ccccc1)C1OC(=O)c2ccccc21 (stereo unspecified),10.6 µM (inactive),17.4 µM (inactive),14.7 µM (inactive),24.2 µM (inactive),22.9 µM (inactive),23.6 µM (inactive),21.5 µM (inactive),10.1 µM (inactive),19 µM (inactive),11.2 µM (inactive),15.8 µM (inactive),10.9 µM (inactive),13.5 µM (inactive),8.24 µM (inactive),9.1 µM (inactive),17.1 µM (inactive)
C#Cc1cc(CN(CC(=O)OC(C)(C)C)CC(=O)OC(C)(C)C)nc(CN(CC(=O)OC(C)(C)C)CC(=O)OC(C)(C)C)c1,4.74 µM (inactive),5.24 µM (inactive),5.89 µM (inactive),7.66 µM (inactive),17.8 µM (inactive),17.3 µM (inactive),4.6 µM (inactive),15.2 µM (inactive),4.81 µM (inactive),7.06 µM (inactive),4.8 µM (inactive),2.98 µM (inactive),2.37 µM (inactive),2.75 µM (inactive),5.07 µM (inactive),4.39 µM (inactive)
O=C1[C@@H]2C(c3ccc(Cl)cc3Cl)=NO[C@@H]2C(=O)N1c1ccc(Cc2ccc(N3C(=O)[C@H]4C(c5ccc(Cl)cc5Cl)=NO[C@H]4C3=O)cc2)cc1,> 100 µM (inactive),40.7 µM (inactive),37.7 µM (inactive),70 µM (inactive),> 100 µM (inactive),51.8 µM (inactive),29.3 µM (inactive),52.7 µM (inactive),71.8 µM (inactive),45.9 µM (inactive),> 100 µM (inactive),11.4 µM (inactive),47.8 µM (inactive),21.2 µM (inactive),–,74 µM (inactive)
Cc1cc(NS(=O)(=O)c2ccc(NC(=O)c3cccc4c(Nc5ccc(S(=O)(=O)Nc6cc(C)on6)cc5)c5ccccc5nc34)cc2)no1,44.5 µM (inactive),70.3 µM (inactive),72.6 µM (inactive),27.7 µM (inactive),68.9 µM (inactive),–,36.6 µM (inactive),27.4 µM (inactive),> 100 µM (inactive),33 µM (inactive),34.7 µM (inactive),23.7 µM (inactive),30.5 µM (inactive),64.4 µM (inactive),30.5 µM (inactive),> 100 µM (inactive)
CC1=NN(C(=O)c2ccc(Cl)cc2)C(=O)/C1=C/c1ccco1,> 100 µM (inactive),> 100 µM (inactive),> 100 µM (inactive),> 100 µM (inactive),> 100 µM (inactive),> 100 µM (inactive),> 100 µM (inactive),> 100 µM (inactive),> 100 µM (inactive),> 100 µM (inactive),> 100 µM (inactive),> 100 µM (inactive),> 100 µM (inactive),> 100 µM (inactive),> 100 µM (inactive),> 100 µM (inactive)
COc1ccc(C2CCC(Cl)(OC)CC2C=O)cc1 (stereo unspecified),34.6 µM (inactive),85.1 µM (inactive),40.1 µM (inactive),> 100 µM (inactive),> 100 µM (inactive),> 100 µM (inactive),> 100 µM (inactive),56.4 µM (inactive),54.3 µM (inactive),45 µM (inactive),21.9 µM (inactive),69.5 µM (inactive),13.3 µM (inactive),45.7 µM (inactive),43.9 µM (inactive),46.1 µM (inactive)
Cc1ccc(NC(=O)C2C(=O)C(=O)N(c3ccc(C)cc3)C2=O)cc1 (stereo unspecified),> 100 µM (inactive),> 100 µM (inactive),> 100 µM (inactive),> 100 µM (inactive),> 100 µM (inactive),> 100 µM (inactive),> 100 µM (inactive),> 100 µM (inactive),> 100 µM (inactive),> 100 µM (inactive),> 100 µM (inactive),> 100 µM (inactive),–,–,99.3 µM (inactive),> 100 µM (inactive)
COC(=O)C(CCC1(C)OCCO1)C(C)=O (stereo unspecified),> 100 µM (inactive),> 100 µM (inactive),> 100 µM (inactive),> 100 µM (inactive),> 100 µM (inactive),> 100 µM (inactive),> 100 µM (inactive),> 100 µM (inactive),> 100 µM (inactive),> 100 µM (inactive),> 100 µM (inactive),> 100 µM (inactive),> 100 µM (inactive),–,> 100 µM (inactive),> 100 µM (inactive)
CCCCCCCCCCCCCS(=O)(=O)O,> 100 µM (inactive),> 100 µM (inactive),> 100 µM (inactive),> 100 µM (inactive),> 100 µM (inactive),> 100 µM (inactive),–,> 100 µM (inactive),> 100 µM (inactive),> 100 µM (inactive),> 100 µM (inactive),> 100 µM (inactive),> 100 µM (inactive),–,> 100 µM (inactive),> 100 µM (inactive)
CC1C[C@H](OC(N)=O)C(C)CC1=O (stereo partly specified),> 100 µM (inactive),> 100 µM (inactive),> 100 µM (inactive),> 100 µM (inactive),> 100 µM (inactive),> 100 µM (inactive),> 100 µM (inactive),> 100 µM (inactive),> 100 µM (inactive),> 100 µM (inactive),> 100 µM (inactive),> 100 µM (inactive),> 100 µM (inactive),> 100 µM (inactive),> 100 µM (inactive),> 100 µM (inactive)
COc1cc(CCc2ccc(OC(C)=O)cc2)cc(OC)c1OC,–,> 100 µM (inactive),> 100 µM (inactive),> 100 µM (inactive),> 100 µM (inactive),> 100 µM (inactive),63.8 µM (inactive),> 100 µM (inactive),> 100 µM (inactive),> 100 µM (inactive),> 100 µM (inactive),> 100 µM (inactive),92 µM (inactive),86.3 µM (inactive),> 100 µM (inactive),> 100 µM (inactive)
